“Also recorded” adds a separate entry of the source. Each block holds one molecule with its values, some of them ahead of it.
Key:
normal bone marrow cells [1] = assay: CFU-GEMM colony assay, normal bone marrow, compound present for 14 days; type: cell-based, human; settings: for toxicity to normal bone marrow cells: until concentrations of 20 μM or greater; for number of CFU-GM or CFU-C colonies: in vitro assays of human bone marrow cell growth, continual exposure for 14 days, about 1-20 μM
Protocol: Treatment of normal bone marrow in culture with CR4. The CFU-GEMM assay was performed according to Fauser and Messner (Blood, 52(6) 1243-8,1978) and Messner and Fausser (Blut 41(5) 327-33, 1980) with some variations. In brief, heparinized bone marrow cells were layered over Percoll (1.077 gm/ml) and centrifuged at 400 g at 4° C. for 10 minutes to remove neutrophils and RBCs. The fractionated BM cells at 2×10^5 cells/ml were cultured in IMDM containing 0.9% (vol/vol) methylcellulose supplemented with 30% FCS or normal human plasma, a cocktail of cytokines containing G-CSF (10 ng/ml), IL-3 (40 U/ml), MGF (50 ng/ml), Erythropoietin (2u/ml) or TPO (10 ng/ml) and 5×10^−5M μ-2-mercaptoethanol. CR4 was added to the cells in concentrations indicated in FIG. 1 and the culture mixture was plated in 1 ml volumes into 35 mm petri dishes and incubated at 37° C., 5% CO2 in a humidified atmosphere. All cultures were evaluated at 14 days for the number of BFU-E colonies (defined as aggregates of more than 500 hemaglobinized cells or, 3 or more erythroid subcolonies), CFU-C colonies (defined as granulocyte or monocyte-macrophage cells or both), and CFU-GEMM colonies (a mixed population comprising of all elements). All control samples in this and other examples were treated with the matching concentration of the solvent (DMSO) for the compounds in the same medium or in the case of Example 21, PBS, as indicated. CFU-C stimulation with CR4 dose response. Bone marrow cells were prepared as in Example 15. CR4 was added to the cells at 10 or 20 μM. The culture mixture was plated in 1 ml volumes into 35 mm petri dishes and incubated at 37° C., 5% CO2 in a humidified atmosphere. All cultures were evaluated at 14 days for the number of CFU-C colonies (defined as granulocyte or monocyte-macrophage cells or both). […] Stimulation of CFU-C colony formation by CR11. Bone marrow cells were prepared as in Example 15. CR11 was added to the cells at 10 or 20 μM. The culture mixture was plated in 1 ml volumes into 35 mm petri dishes and incubated at 37° C., 5% […] in a humidified atmosphere. All cultures were evaluated at 14 days for the number of CFU-C colonies. […] CFU-C stimulation with CR19 dose response. Bone marrow cells were prepared as in Example 15. The culture mixture was plated in 1 ml volumes into 35 mm petri dishes and incubated at 37° C., 5% CO2 in a humidified atmosphere. All cultures were evaluated at 14 days for the number of BFU-E and CFU-C colonies.

[2] = tested on: CD34+ multipotent stem cells; assay: CFU-C colony formation from CD34+ selected stem cells; type: cell-based, human
normal bone marrow cells [3] = assay: CFU-C colony formation after short high dose exposure (2.5-5 hours), wash-out, 14 day culture; type: cell-based, human
Protocol: Stimulation of CFU-C colony formation with high dose CR4 for 2.5 hours. Bone marrow cells were layered over Percoll and centrifuged at 400 g at 4° C. for 10 minutes to remove neutrophils and RBCs. The cells were resuspended at 1×10^6/ml in complete medium with or without 50 μM CR4. The cells were incubated with the compound for two and a half hours at 37° C., 5% CO2. At the end of this period the cells were thoroughly washed in medium to remove CR4 and then cultured at 2×10^5 cells/ml in IMDM containing 0.9% (vol/vol) methylcellulose supplemented with 30% FCS or normal human plasma, and a cocktail of cytokines containing G-CSF (10 ng/ml), IL-3 (40 U/ml,), MGF (50 ng/ml), Erythropoietin or TPO and 5×10^−5M μ-2-mercaptoethanol. The culture mixture was plated in 1 ml volumes into 35 mm petri dishes and incubated at 37° C., 5% CO2 in a humidified atmosphere. All cultures were evaluated at 14 days for the number of CFU-C colonies. […] Stimulation of CFU-C colony formation with high dose CR4 for 2.5 and 5 hours. Bone marrow cells were prepared and treated as in Example 19, except exposure times of 2.5 and 5 hours were evaluated. The culture mixture was plated in 1 ml volumes into 35 mm petri dishes and incubated at 37° C., 5% CO2 in a humidified atmosphere. All cultures were evaluated at 14 days for the number of CFU-GM colonies (defined as granulocyte or macrophage cells or both). […] Stimulation of CFU-C colony formation with high dose CR4—two independent bone marrow samples (A&B). Bone marrow cells were prepared and treated as in Example 19, except that CR4 concentrations of 25 and 50 μM were evaluated. The culture mixtures was plated in 1 ml volumes into 35 mm petri dishes and incubated at 37° C., 5% CO2 in a humidified atmosphere. All cultures were evaluated at 14 days for the number of CFU-C colonies.

mice [4] = assay: Peripheral white blood cell count in mice; type: in vivo; settings: for white blood cells in the peripheral blood: SCI mouse model, similar kinetics to G-CSF treated mice; for white blood cell counts: mice injected daily, peripheral blood after 14 and 17 days, FIG. 9
Protocol: Promotion of peripheral white blood cell count by CR11. Mice were injected daily with CR11. 250 μl of 400 μM CR11 was injected in PBS. Controls were injected with matching concentrations of CR11 solvent (DMSO) in PBS, or recombinant human G-CSF. After 14 and 17 days blood peripheral blood samples were taken and white blood cell counts determined. Results from each group were averaged.

mice [5] = assay: Granulocytes in the spleen of treated mice; type: in vivo; settings: for normal splenic granulocytes: daily injection, SCI mouse model; for non-specific damage to the animal: doses required to promote myelopoiesis, one month of continual administration
[6] = tested on: normal bone marrow mononuclear cells; assay: Long-term culture-initiating cell (LTC-IC) assay on stroma after pre-incubation; type: cell-based, human; settings: for myeloproliferation in long-term cultures: pre-incubated with 50 uM for 5 hours, FIG. 11
Description: The long-term BM culture system provides the means to investigate the proliferation and differentiation properties of primitive hematopoietic cells. To assess the long-term effects of CR4 on early progenitor cells the long-term culture-initiating cell (LTC-IC) assay was set up utilizing stromal microenvironment. Briefly, to obtain stromal cells bone marrow mononuclear cells were suspended in long-term culture (LTC) media (MyeloCult Stem Cell Technologies Inc.) supplemented with 10^−6 mol/L hydrocortisone sodium succinate (HSS; Sigma Aldrich Canada Ltd., Mississauga, Ont.,Canada). Approximately 1×10^7 cells were plated into 25 cm^2 tissue culture flasks (Becton Dickinson Labware, Franklin Lakes, N.J., USA) and incubated for 3 days at […] in a humidified atmosphere with 5% CO2 followed by incubation at 33° C. Cultures were re-fed weekly by replacing half of the medium. Following stromal confluency (3-6 weeks) cells were trypsinized and irradiated (1,500 cGy) using a Cs source. Stromal cells were again replated in LTC media at a concentration of 0.5-1.0×10^6 cells per 35 mm culture dishes (Nunc-Gibco BRL, Gaithersburg, Md.). Subcultured stroma was incubated for 2-3 days (at greater than 70% confluency) prior to co-culturing with fresh non-adherent overlay of hematopoietic cells. Normal bone marrow mononuclear cells, purified by centrifugation on Percoll, at a concentration of 1×10^6 cells/ml were pre-incubated with 50 uM CR4 or the drug diluent alone for a period of 5 hours at 37° C. in media. Cells were then washed twice to remove the compound and plated at 2×10^5 cells/ml for the short-term CFU-GEMM clonogenic assay (as previously described) while the remainder of the non-adherent cells were co-cultured with normal stroma (as described above) for long-term cultures. Long-term cultures were set up with two unrelated normal bone marrow samples (NBM1 and NBM2). Half of the non-adherent mononuclear cells were removed weekly from the stromal co-cultures and plated for colony-forming cells (CFU-GM) in the CFU-GEMM assay.

transformed cell = assay: Transformed cell growth; type: cell-based
[7] = tested on: cells of the myeloid lineage; assay: Promotion of myelopoiesis (general statement); settings: in vitro, ex vivo and in vivo

other normal bone marrow cells (normal bone marrow cells [3]; same doses (25-50 μM) over the same period (2-5 hours)): relatively unaffected
Molecule: N#C/C(=C\C=C\c1ccc(O)c(O)c1)C(=O)NCc1ccccc1 [CR4, (E,E)-2-(Benzylaminocarbonyl)-3-(3,4-dihydroxystyryl)acrylonitrile]
CFU-C colony formation (normal bone marrow cells [1]; 10 μM, 14 days): significantly stimulated; also recorded: significantly increased
BFU-E colony formation (normal bone marrow cells [1]; 10 μM, 14 days, FIG. 1): some inhibition
CFU-C colony formation (normal bone marrow cells [1]; 20 μM, 14 days): equivalent to the control
toxicity to normal bone marrow cells (normal bone marrow cells [1]; 14 days): minimal toxicity
CFU-C colony numbers (normal bone marrow cells [1]; concentrations from about 0.6 to 10 μM, 14 days, FIG. 1): stimulated
toxicity upon normal bone marrow (normal bone marrow cells [1]; doses up to 5 μM, 14 days, FIG. 1): negligible toxicity
number of CFU-GM or CFU-C colonies (normal bone marrow cells [1]): effective in increasing
formation of CFU-C colonies from CD34+ stem cells ([2]; concentrations from 2.5-7.5 μM, 14 days, FIG. 2): significantly increased
myeloproliferation with purified CD34+ and hematopoietic stem cells ([2]; short-term CFU-GEMM assay, FIG. 12): can be induced
CFU-C colony formation (normal bone marrow cells [3]; 5 μM (so in the source), five hours exposure, FIG. 6): increased significantly
CFU-C colony formation (normal bone marrow cells [3]; 5 μM (so in the source), two and a half hours exposure, FIG. 6): increased significantly
CFU-C colony formation (normal bone marrow cells [3]; 25 μM, five hours exposure, bone marrow sample A, FIG. 7A): increased significantly
CFU-C colony formation (normal bone marrow cells [3]; 50 μM, five hours exposure, bone marrow sample A, FIG. 7A): increased significantly
CFU-C colony formation (normal bone marrow cells [3]; 50 μM, five hours exposure, other bone marrow sample, FIG. 7B): increased significantly
CFU-C colony formation (normal bone marrow cells [3]; 50 μM, two and a half hours exposure, FIG. 5): increased significantly
myelopoiesis when the cells are cultured (normal bone marrow cells [3]; 25-50 μM for 2-5 hours): increased myelopoiesis
white blood cells in the peripheral blood (mice [4]): Increased numbers
normal splenic granulocytes (mice [5]): tremendous increase
non-specific damage to the animal (mice [5]): did not result in detectable non-specific damage
granulocytes in the spleen (mice [5]; mice, one month, subcutaneous osmotic pump, theoretical 200 μg/kg/hr, FIG. 10): Increase in granulocytes
number of CFU-GM in long-term cultures ([6]; 50 μM for 5 hours): significant increase
myeloproliferation in long-term cultures ([6]; NBM1): significant increase
myeloproliferation in long-term cultures ([6]; NBM2): significant increase
transformed cell growth (transformed cell): do not promote
promoting myelopoiesis [7]: capable of promoting myelopoiesis

Molecule: COc1cc(/C=C/C=C(C#N)C#N)cc(OC)c1O [CR7, (E,E)-2-cyano-3-(3,5-dimethoxy-4-hydroxystyryl)acrylonitrile]
promoting myelopoiesis [7]: capable of promoting myelopoiesis

Molecule: COc1cc(/C=C/C=C(\C#N)C(=O)NCCc2ccccc2)cc(OC)c1O [CR8, (E,E)-2-(Phenylethylamido)-3-(3,5-dimethoxy-4-hydroxystyryl)acrylonitrile]
promoting myelopoiesis [7]: capable of promoting myelopoiesis

Molecule: COc1cc(/C=C/C=C(\C#N)C(=O)NCc2ccc(O)c(O)c2)cc(OC)c1O [CR11, (E,E)-2-(3,4-Dihydroxybenzylaminocarbonyl)-3-(3,5-dimethoxy-4-hydroxystyryl)acrylonitrile]
CFU-C colony formation (normal bone marrow cells [1]; 10 μM, 14 days): elevated colony numbers slightly
CFU-C colony formation (normal bone marrow cells [1]; 20 μM, 14 days): significantly increased
toxicity to normal bone marrow cells (normal bone marrow cells [1]; 14 days): minimal toxicity
number of CFU-GM or CFU-C colonies (normal bone marrow cells [1]): effective in increasing
white blood cells in the peripheral blood (mice [4]): Increased numbers
white blood cell counts (mice [4]): significantly increased
normal splenic granulocytes (mice [5]): tremendous increase
non-specific damage to the animal (mice [5]): did not result in detectable non-specific damage
transformed cell growth (transformed cell): do not promote
promoting myelopoiesis [7]: capable of promoting myelopoiesis

Molecule: N#C/C(=C\C=C\c1ccccc1)C(=O)NCc1ccc(O)c(O)c1 [CR19, (E,E)-2-(3,4 Dihydroxybenzylaminocarbonyl)-3-styrylacrylonitrile]
CFU-C colony formation (normal bone marrow cells [1]; 2.5 μM, 14 days, FIG. 8): significantly increased
number of CFU-GM or CFU-C colonies (normal bone marrow cells [1]): effective in increasing
transformed cell growth (transformed cell): do not promote
promoting myelopoiesis [7]: capable of promoting myelopoiesis

Molecule: COc1cc(/C=C/C=C(\C#N)C(=O)NCc2ccccc2)ccc1O [CR56, (E,E)-2-(benzylaminocarbonyl)-3-(3-methoxy-4-hydroxystyryl)acrylonitrile]
promoting myelopoiesis [7]: capable of promoting myelopoiesis

B1: G-CSF: recombinant human G-CSF (Granulocyte-Colony Stimulating Factor), injected as positive control (protein, UniProt P09919 31-207, looked up)
Granulocyte …: TPLGPASSLPQSFLLKCLEQVRKIQGDGAALQEKLVSECATYKLCHPEELVLLGHSLGIPWAPLSSCPSQALQLAGCLSQLHSGLFLYQGLLQALEGISPELGPTLDTLQLDVADFATTIWQQMEELGMAPALQPTQGAMPAFASAFQRRAGGVLVASHLQSFLEVSYRVLRHLAQP
white blood cell counts (mice [4]): significantly increased

Source: patent US20050014690A1, “Styryl acrylonitrile compounds and their use to promote myelopoiesis” (priority 2001, published 2005)
